From patent publication US20180036270A1, “A METHOD OF PROTECTING AGAINST CARBONYL STRESS INDUCED ISCHEMIA-REPERFUSION INJURY IN THE DIABETIC BRAIN VIA ADMINISTRATION OF N-ACETYLCYSTEINE” (Board of Supervisors of Louisiana State University and …, priority 2015, published 2018)

Experiments:
[1] = tested on: brain GSH and cysteine contents; assay: Brain GSH and cysteine by HPLC; format: in vivo, mouse; details: vehicle mice given BSO, inhibition of GSH synthesis
From the text: Four-week-old male C57BL/6J mice, weighing 18-20 g, were purchased from Jackson Laboratory. These mice were maintained at the Animal Facility of the Louisiana State University Health Sciences Center—Shreveport. Animal care and use in the experiments follow the guidelines in the Guide for the Care and Use of Laboratory Animals, published by the US National Institutes of Health. Following adaptation for 1 week, the mice were divided randomly into 4 groups: non-treated sham operation group (NT-sham group, n=6), non-treated I/R group (NT-I/R group, n=5), vehicle I/R group (Veh-I/R group, n=24), and streptozotocin I/R group (STZ-I/R group, n=19). […] On day 7, mice whose plasma glucose was more than 300 mg/dl were deemed to be diabetic. From diabetes onset at week 1, a group of diabetic mice were given 0.2 mM NAC in the drinking water for 3 weeks (n=3; a total of 4 weeks diabetes, 3 weeks NAC) or 1 week (n=9; a total of 2 weeks diabetes, 1 week NAC). Veh-I/R mice were injected with citrate buffer for consecutive 5 days, and a group of Veh-treated mice were given 0.2 mM NAC for 2 weeks in the drinking water before the ischemia operation (Veh+NAC group, n=8). Another Veh-treated mice were injected (intraperitoneally, 12 hr interval) with 0.5M BSO 24 h before the ischemia operation and during the 24 h reperfusion period (Veh+BSO group, n=10). All mice were 9 weeks old at sacrifice.
Tissue contents of GSH, cysteine and γGC were determined by high-performance liquid chromatography (HPLC). […] Separation of GSH, cysteine and γGC derivatives whose peaks were detected at 365 nm wavelength was performed on a 250×4.6-mm Alltech Lichrosorb NH2 10 μm anion-exchange column. GSH, cysteine and γGC contents were quantified by comparison to standards derivatized in the same manner. Protein pellets were dissolved in 1 M NaOH for protein quantitation and GSH, cysteine and γGC concentrations were expressed as nanomoles per mg protein.

[2] = target: T1, glutamate cysteine ligase (GCL) (Homo sapiens, UniProt P48506); details: after brain ischemia/reperfusion, in the presence of BSO; cited from earlier work
T1 sequence (P48506 1-637): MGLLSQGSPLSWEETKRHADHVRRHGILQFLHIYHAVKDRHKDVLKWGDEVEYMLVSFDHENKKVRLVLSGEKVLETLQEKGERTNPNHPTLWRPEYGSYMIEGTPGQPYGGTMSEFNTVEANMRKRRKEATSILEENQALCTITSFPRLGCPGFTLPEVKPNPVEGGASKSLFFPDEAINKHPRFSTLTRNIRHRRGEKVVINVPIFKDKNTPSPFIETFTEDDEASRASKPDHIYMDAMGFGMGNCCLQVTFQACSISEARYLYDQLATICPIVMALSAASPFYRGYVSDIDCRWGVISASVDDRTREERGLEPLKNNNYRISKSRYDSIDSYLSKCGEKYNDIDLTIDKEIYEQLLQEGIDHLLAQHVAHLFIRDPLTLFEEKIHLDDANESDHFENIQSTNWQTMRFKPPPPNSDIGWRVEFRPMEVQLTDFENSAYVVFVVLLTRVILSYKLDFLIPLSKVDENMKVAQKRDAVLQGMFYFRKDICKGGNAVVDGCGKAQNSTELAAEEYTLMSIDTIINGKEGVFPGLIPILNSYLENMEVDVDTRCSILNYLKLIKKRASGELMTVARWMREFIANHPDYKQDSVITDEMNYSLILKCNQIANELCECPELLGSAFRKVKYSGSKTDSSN
T1 sequence (P48507 1-274 partner): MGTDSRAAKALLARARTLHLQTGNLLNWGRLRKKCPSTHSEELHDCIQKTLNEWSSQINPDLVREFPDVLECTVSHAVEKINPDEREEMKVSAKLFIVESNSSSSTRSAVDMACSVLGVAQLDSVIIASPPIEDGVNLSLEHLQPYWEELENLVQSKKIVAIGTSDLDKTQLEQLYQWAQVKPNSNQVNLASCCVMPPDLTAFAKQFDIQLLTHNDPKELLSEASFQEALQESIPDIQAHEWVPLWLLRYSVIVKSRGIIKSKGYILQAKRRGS

[3] = tested on: human brain microvascular endothelial cell; assay: Endothelial barrier permeability by transendothelial electrical resistance; format: cell-based; details: MG alone
Procedure: Moreover, treatment with 100 μM MG in rat thoracic aortic rings for 24 h decreases acetylcholine-induced vascular relaxation via a reduction in p-eNOS (Ser1177) and p-AMPKα (Thr172). MG can reduce endothelial angiogenesis through RAGE-mediated, ONOO(^−)-dependent and autophagy-induced VEGFR2 degradation. […] This is exacerbated by GSH synthesis inhibition and prevented by NAC. The enhanced MG concentration in diabetic patients can also directly contribute to the platelet dysfunction associated with diabetes. Platelet dysfunction is characterized by hyperaggregability and reduced thrombus stability via potentiating thrombin-induced platelet aggregation and dense granule release, but inhibiting platelet spreading on fibronectin and collagen. Given that endothelial dysfunction and enhanced platelet activation could promote stroke, these studies indicate that MG can contribute to ischemic brain injury.

[4] = tested on: rat thoracic aortic rings; details: 100 μM MG for 24 h; cited from earlier work
Akita diabetic mouse = assay: Akita model: platelet-neutrophil aggregates and thrombosis onset and cessation; format: in vivo; details: Akita diabetic mice, insulin treatment
From the text: FIGS. 28A-28C are three bar graphs showing percent platelet-neutrophil aggregate formation (FIG. 28A), time to onset of thrombosis (FIG. 28B), and time to cessation of thrombosis (FIG. 28C) for Akita non-diabetic mouse, Akita diabetic mouse, Akita diabetic mouse plus insulin, and Akita diabetic mouse plus insulin and NAC; and
Akita model: like STZ model, shown in FIGS. 28A-28C percent platelet-neutrophil aggregate formation is increased, and time to onset and cessation in thrombosis are accelerated in arterioles and venules. Again this reiterates that the effects of diabetes may be “global” rather than confined to one type/cause of diabetes. […] The data evidences that glucose control, which is the current treatment, is not completely effective and that co-treatment with NAC is very effective. […] It appears that insulin and NAC are additive/synergistic.

CCCCS(=N)(=O)CCC(N)C(=O)O [BSO, L-buthionine sulfoximine]
brain cysteine levels [1]: higher free cysteine levels
brain infarction and edema [2]: exacerbated further

CC(=O)C=O [MG, Methylglyoxal]
endothelial barrier permeability (loss of transendothelial electrical resistance) [3]: increase human brain microvascular endothelial cell barrier permeability
acetylcholine-induced vascular relaxation [4]: decreases

insulin
platelet-neutrophil aggregate formation (Akita diabetic mouse): reversal
thrombosis cessation time (time to complete occlusion of the vessel) (Akita diabetic mouse): did not correct
thrombosis onset time in arterioles (Akita diabetic mouse): reversal
thrombosis onset time in venules (Akita diabetic mouse): did not correct
